Data on 19 compounds can be found in patent US8574563B2 (Bristol-Myers Squibb Company, priority 2006, dated 2013).

This assay deals with HCV 1b-377-neo replicon cells. In words: HCV replicon assay, HCV 1b-377-neo replicon cells (1b FRET). The note with it: Hepatitis C virus, HCV 1b-377-neo replicon cells; HCV 1b genotype; read-out: EC50 range against HCV 1b (Table 2, Range). Format: cell-based, Hepatitis C virus genotype 1b. Put shortly: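 Compounds were tested in genotype 1b subgenomic replicon cells carrying a neomycin marker, alongside a matched replicon line with an NS5A Y2065H substitution that confers resistance to a reference NS5A inhibitor.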
Consider `CN(C)[C@@H](C(=O)N1CCC[C@H]1c1ncc(-c2cnc(-c3ncc(-c4cnc([C@@H]5CCCN5C(=O)[C@@H](c5ccccc5)N(C)C)[nH]4)cn3)nc2)[nH]1)c1ccccc1` [Example 153c-3, (1R,1′R)-2,2′-(2,2′-bipyrimidine-5,5′-diylbis(1H-imidazole-5,2-diyl(2S)-2,1-pyrrolidinediyl))bis(N,N-dimethyl-2-oxo-1-phenylethanamine)], for which the EC50 lay within 1000 to 10000 nM. The same measure for `COC(=O)N[C@@H](C(=O)N1CCC[C@H]1c1ncc(-c2cnc(-c3ncc(-c4cnc([C@@H]5CCCN5C(=O)[C@H](NC(=O)OC)c5ccccc5)[nH]4)cn3)nc2)[nH]1)c1ccccc1` [Example 153c-4, dimethyl (2,2′-bipyrimidine-5,5′-diylbis(1H-imidazole-5,2-diyl(2S)-2,1-pyrrolidinediyl((1R)-2-oxo-1-phenyl-2,1-ethanediyl)))biscarbamate]: 1000 to 10000 nM.

Turning to `CN(C)[C@@H](C(=O)N1CCC[C@H]1c1ncc(-c2cnc(-c3cnc(-c4cnc([C@@H]5CCCN5C(=O)[C@@H](c5ccccc5)N(C)C)[nH]4)cn3)cn2)[nH]1)c1ccccc1` [Example 153c-5, (1R,1′R)-2,2′-(2,2′-bipyrazine-5,5′-diylbis(1H-imidazole-5,2-diyl(2S)-2,1-pyrrolidinediyl))bis(N,N-dimethyl-2-oxo-1-phenylethanamine)], the concentration giving a half-maximal response (EC50) is 1 to 99 nM.

`COC(=O)N[C@@H](C(=O)N1CCC[C@H]1c1ncc(-c2cnc(-c3cnc(-c4cnc([C@@H]5CCCN5C(=O)[C@H](NC(=O)OC)c5ccccc5)[nH]4)cn3)cn2)[nH]1)c1ccccc1` [Example 153c-6, dimethyl (2,2′-bipyrazine-5,5′-diylbis(1H-imidazole-5,2-diyl(2S)-2,1-pyrrolidinediyl((1R)-2-oxo-1-phenyl-2,1-ethanediyl)))biscarbamate]: the EC50 was in the range of 1 to 99 nM. With `COC(=O)N[C@@H](C(=O)N[C@@H](C)c1ncc(-c2ccc(-c3ccc(-c4cnc([C@H](C)NC(=O)[C@H](NC(=O)OC)c5ccccc5)[nH]4)cn3)nc2)[nH]1)c1ccccc1` [Example 153c-7, dimethyl (2,2′-bipyridine-5,5′-diylbis(1H-imidazole-5,2-diyl(1S)-1,1-ethanediylimino((1R)-2-oxo-1-phenyl-2,1-ethanediyl)))biscarbamate] the figure was 1 to 99 nM; with `COc1ccc(-c2ccc(-c3cnc([C@@H]4CCCN4C(=O)[C@@H](c4ccccc4)N(C)C)[nH]3)cc2)cc1-c1c[nH]c([C@@H]2CCCN2C(=O)[C@@H](c2ccccc2)N(C)C)n1` [Example D33, (1R,1′R)-2,2′-((4-methoxy-3,4′-biphenyldiyl)bis(1H-imidazole-5,2-diyl(2S)-2,1-pyrrolidinediyl))bis (N,N-dimethyl-2-oxo-1-phenylethanamine)], 0.001 to 0.999 nM. The same measure for `COC(=O)N[C@@H](C(=O)N1CCC[C@H]1c1nc(-c2cc(-c3ccc(-c4cnc([C@@H]5CCCN5C(=O)[C@H](NC(=O)OC)c5ccccc5)[nH]4)cc3)ccc2OC)c[nH]1)c1ccccc1` [Example D34, dimethyl ((4-methoxy-3,4′-biphenyldiyl)bis(1H-imidazole-5,2-diyl(2S)-2,1-pyrrolidinediyl((1R)-2-oxo-1-phenyl-2,1-ethanediyl))) biscarbamate]: 0.001 to 0.999 nM; for `CCN(CC)[C@@H](C(=O)N1CCC[C@H]1c1ncc(-c2ccc(-c3ccc(-c4cnc([C@@H]5CCCN5C(=O)[C@@H](NC(=O)OC)C(C)C)[nH]4)c(F)c3)cc2)[nH]1)c1ccccc1` [Example D35, methyl ((1S)-1-(((2S)-2-(5-(4′-(2-((2S)-1-((2R)-2-(diethylamino)-2 - phenylacetyl)-2-pyrrolidinyl)-1H-imidazol-5-yl)-3-fluoro-4-biphenylyl)-1H-imidazol-2-yl)-1-pyrrolidinyl)carbonyl)-2-methylpropyl) carbamate]: 0.001 to 0.999 nM; for `CCN(CC)[C@@H](C(=O)N1CCC[C@H]1c1ncc(-c2ccc(-c3ccc(-c4cnc([C@@H]5CCCN5C(=O)[C@H](C)NC(=O)OC)[nH]4)c(F)c3)cc2)[nH]1)c1ccccc1` [Example D36, methyl ((1S)-2-((2S)-2-(5-(4′-(2-((2S)-1-((2R)-2-(diethylamino)-2-phenylacetyl)-2-pyrrolidinyl)-1H-imidazol-5-yl)-3-fluoro-4-biphenylyl)-1H-imidazol-2-yl)-1-pyrrolidinyl)-1-methyl-2-oxoethyl)carbamate]: 0.001 to 0.999 nM. The same measure for `CCN(CC)[C@@H](C(=O)N1CCC[C@H]1c1ncc(-c2ccc(-c3ccc(-c4cnc([C@@H]5CCCN5C(=O)[C@H](NC(=O)OC)c5ccccc5)[nH]4)c(F)c3)cc2)[nH]1)c1ccccc1` [Example D37, methyl ((1R)-2-((2S)-2-(5-(4′-(2-((2S)-1-((2R)-2-(diethylamino)-2-phenylacelyl)-2-pyrrolidinyl)-1H-imidazol-5-yl)-3-fluoro-4-biphenylyl)-1H-imidazol-2-yl)-1-pyrrolidinyl)-2-oxo-1-phenylethyl)carbamate]: 0.001 to 0.999 nM. Consider `COC(=O)N[C@@H](C)C(=O)N1CCC[C@H]1c1ncc(-c2ccc(-c3ccc(-c4cnc([C@@H]5CCCN5C(=O)[C@H](NC(=O)OC)c5ccccc5)[nH]4)cc3)cc2F)[nH]1` [Example D38, methyl ((1R)-2-((2S)-2-(5-(3′-fluoro-4′-(2-((2S)-1-(N-(methoxycarbonyl)-L-alanyl)-2-pyrrolidinyl)-1H-imidazol-5-yl)-4-biphenylyl)-1H-imidazol-2-yl)-1-pyrrolidinyl)-2-oxo-1-phenylethyl)carbamate], for which the EC50 lay in the range of 0.001 to 0.999 nM. The same measure for `CCN(CC)[C@@H](C(=O)N1CCC[C@H]1c1ncc(-c2ccc(-c3ccc(-c4cnc([C@@H]5CCCN5C(=O)[C@H](NC(=O)OC)c5ccccc5)[nH]4)cc3)cc2F)[nH]1)c1ccccc1` [Example D39, methyl ((1R)-2-((2S)-2-(5-(4′-(2-((2S)-1-((2R)-2-(diethylamino)-2-phenylacetyl)-2-pyrrolidinyl)-1H-imidazol-5-yl)-3′-fluoro-4-biphenylyl)-1H-imidazol-2-yl)-1-pyrrolidinyl)-2-oxo-1-phenylethyl)carbamate]: 0.001 to 0.999 nM; for `COC(=O)N[C@H](C(=O)N1CCC[C@H]1c1ncc(-c2ccc(-c3ccc(-c4cnc([C@@H]5CCCN5C(=O)[C@@H](NC(=O)OC)C(C)C)[nH]4)c(F)c3)cc2)[nH]1)C(C)C` [Example D40, methyl ((1S)-1-(((2S)-2-(5-(3′-fluoro-4′-(2-((2S)-1-((2S)-2-((methoxycarbonyl)amino)-3-methylbutanoyl)-2-pyrrolidinyl)-1H-imidazol-5-yl)-4-biphenylyl)-1H-imidazol-2-yl)-1-pyrrolidinyl)carbony)-2-methylpropyl) carbamate]: 0.001 to 0.999 nM; for `COC(=O)N[C@@H](C)C(=O)N1CCC[C@H]1c1ncc(-c2ccc(-c3ccc(-c4cnc([C@@H]5CCCN5C(=O)[C@@H](NC(=O)OC)C(C)C)[nH]4)cc3)cc2F)[nH]1` [Example D41, methyl ((1S)-1-(((2S)-2-(5-(3′-fluoro-4′-(2-((2S)-1-(N-(methoxycarbonyl)-L-alanyl)-2-pyrrolidinyl)-1H-imidazol-5-yl)-4-biphenylyl)-1H-imidazol-2-yl)-1-pyrrolidinyl)carbonyl)-2-methylpropyl) carbamate]: 0.001 to 0.999 nM. The same measure for `CCN(CC)[C@H](C)C(=O)N1CCC[C@H]1c1ncc(-c2ccc(-c3ccc(-c4cnc([C@@H]5CCCN5C(=O)[C@@H](NC(=O)OC)C(C)C)[nH]4)cc3)cc2F)[nH]1` [Example D43, methyl ((1S)-1-(((2S)-2-(5-(4′-(2-((2S)-1-(N,N-diethyl-D-alanyl)-2-pyrrolidinyl)-1H-imidazol-5-yl)-3′-fluoro-4-biphenylyl)-1H-imidazol-2-yl)-1-pyrrolidinyl)carbonyl)-2-methylpropyl) carbamate]: 0.001 to 0.999 nM; for `CCN(CC)[C@@H](C(=O)N1CCC[C@H]1c1ncc(-c2ccc(-c3ccc(-c4cnc([C@@H]5CCCN5C(=O)[C@@H](NC(=O)OC)C(C)C)[nH]4)cc3)cc2F)[nH]1)c1ccccc1` [Example D44, methyl ((1S)-1-(((2S)-2-(5-(4′-(2-((2S)-1-((2R)-2-(diethylamino)-2-phenylacetyl)-2-pyrrolidinyl)-1H-imidazol-5-yl)-3′-fluoro-4-biphenylyl)-1H-imidazol-2-yl)-1-pyrrolidinyl)carbonyl)-2-methylpropyl) carbamate]: 0.001 to 0.999 nM.

For `COC(=O)N[C@@H](C)C(=O)N1CCC[C@H]1c1ncc(-c2ccc(-c3ccc(-c4cnc([C@@H]5CCCN5C(=O)[C@H](C)NC(=O)OC)[nH]4)c(F)c3)cc2)[nH]1` [Example D45, methyl ((1S)-2-((2S)-2-(5-(3′-fluoro-4′-(2-((2S)-1-(N-(methoxycarbonyl)-L-alanyl)-2-pyrrolidinyl)-1H-imidazol-5-yl)-4-biphenylyl)-1H-imidazol-2-yl)-1-pyrrolidinyl)-1-methyl-2-oxoethyl)carbamate], the EC50 lay in the range of 0.001 to 0.999 nM. With `COC(=O)N[C@@H](C(=O)N1CCC[C@H]1c1ncc(-c2ccc(-c3ccc(-c4cnc([C@@H]5CCCN5C(=O)[C@H](NC(=O)OC)c5ccccc5)[nH]4)c(F)c3)cc2)[nH]1)c1ccccc1` [Example D46, dimethyl ((3-fluoro-4,4′-biphenyldiyl)bis(1H-imidazole-5,2-diyl(2S)-2,1-pyrrolidinediyl((1R)-2-oxo-1-phenyl-2,1-ethanediyl))) biscarbamate] the figure was 0.001 to 0.999 nM; with `CCN(CC)[C@@H](C(=O)N1CCC[C@H]1c1ncc(-c2ccc(-c3ccc(-c4cnc([C@@H]5CCCN5C(=O)[C@@H](c5ccccc5)N(CC)CC)[nH]4)c(F)c3)cc2)[nH]1)c1ccccc1` [Example D47, (1R,1′R)-2,2′-((3-fluoro-4,4′-biphenyldiyl)bis(1H-imidazole-5,2-diyl(2S)-2,1-pyrrolidinediyl))bis (N,N-diethyl-2-oxo-1-phenylethanamine)], 0.001 to 0.999 nM.
